pIC50: −log10 of the molar value.
What was measured:
hybridoma mouse cells = settings: nM concentrations; cited from earlier work
[1] = test system: T-lymphoblastic leukaemia CEM cells; settings: read-out: IC50, cytotoxicity; cited from earlier work
ICAM-1 mRNA = test: Real time PCR of wound tissue, ICAM-1; type: in vivo; settings: d 10 post-wounding, 10 μg/mouse topical daily
TGF-β mRNA = test: Real time PCR of wound tissue, TGF-β; type: in vivo; settings: d 10 post-wounding, 10 μg/mouse topical daily
TNF-α mRNA = test: Real time PCR of wound tissue, TNF-α; type: in vivo; settings: d 10 post-wounding, 10 μg/mouse topical daily
A549 cancer cell line = settings: cited from earlier work
3T3 mouse fibroblasts [2] = test: Fibroblast viability / cytotoxicity assay; type: cell-based; settings: for pIC50: read-out: Cell cytotoxicity, IC, MTT, 0.3–30 μM for 4 h
[3] = Body weight and food intake after wounding; type: in vivo; settings: 10 μg/mouse topically daily, d 2 post-wounding
healthy rats = settings: oral administration, associated with activation of Akt; cited from earlier work
phospho-Akt1(Ser473) = test: Western blot of edge-of-the-wound tissue, Akt phosphorylation; type: in vivo; settings: 10 μg/mouse topical daily
macrophage cell culture = test: LPS-stimulated inflammation in macrophage cell culture; type: cell-based; settings: preliminary data, not shown
K562 cancer cell line = settings: cited from earlier work
3T3 mouse fibroblasts [4] = test: Fibroblast proliferation assay; type: cell-based; settings: 24 h, BrdU, mean ± SEM
[5] = test system: primary mouse keratinocytes; test: Primary keratinocyte proliferation assay; type: cell-based; settings: for Proliferation of primary keratinocytes: versus vehicle (ethanol); for Proliferation of primary keratinocytes, dose dependence: respective doses, Alamar Blue
[6] = test system: full thickness dermal wound in C57BL/6J mice; test: Mouse model of cutaneous wound healing; type: in vivo
HeLa cancer cell line = settings: cited from earlier work
3T3 mouse fibroblasts [7] = test: Scratch wound closure; type: cell-based; settings: for Scratch wound closure at 5 μM, %: 12 h incubation, mean ± SEM; for Fibroblast migration / scratch wound closure activity (in words): dose dependence at 0.1–10 μM, 12 h
HOS cancer cell line = settings: cited from earlier work
RPMI 8226 cancer cells = settings: read-out: IC50, cytotoxicity; RPMI 8226 cells; cited from earlier work
[8] = Fibroblast viability / cytotoxicity assay; type: cell-based, mouse; settings: mouse, NIH 3T3 fibroblasts (ATCC CCL-92)
human cancer cell lines = settings: below 50 μM; cited from earlier work
3T3 mouse fibroblasts [9] = settings: PDGF 2 nM, reference treatment; cited from earlier work

Molecule: CC(C)[C@@H](C)[C@@H](O)[C@H](O)[C@@H](C)[C@H]1CC[C@H]2[C@@H]3COC(=O)[C@H]4C[C@H](O)[C@H](O)C[C@]4(C)[C@H]3CC[C@]12C [24-epibrassinolide]
- Proportions of viable hybridoma mouse cells (hybridoma mouse cells): increased

Molecule: CC[C@@H](C(C)C)[C@@H](O)[C@H](O)[C@@H](C)[C@H]1CC[C@H]2[C@@H]3CC(=O)[C@H]4C[C@H](O)[C@H](O)C[C@]4(C)[C@H]3CC[C@]12C [(22R, 23R)-homocastasterone, reference compound]
- pIC50 [1]: 4.89

Molecule: CCNC(=O)[C@H]1O[C@@H](n2cnc3c(N)nc(NCCc4ccc(CCC(=O)O)cc4)nc32)[C@H](O)[C@@H]1O [CGS-21680, reference compound]
- ICAM-1 mRNA level in wound tissue (ICAM-1 mRNA): no effect
- TGF-β mRNA level in wound tissue (TGF-β mRNA): no effect
- TNF-α mRNA level in wound tissue (TNF-α mRNA): remarkable suppression

Molecule: CC[C@@H](C(C)C)[C@H](O)[C@@H](O)[C@@H](C)[C@H]1CC[C@H]2[C@@H]3COC(=O)[C@H]4C[C@H](O)[C@H](O)C[C@]4(C)[C@H]3CC[C@]12C [Compound 1, (22S, 23S, 24S)-2α, 3 α, 22,23-tetrahydroxy-24 ethyl-^2-homo-7-oxo-5α-cholestane-6-one]
- Cytotoxicity (in words) (A549 cancer cell line): no cytotoxicity
- ICAM-1 mRNA level in wound tissue (ICAM-1 mRNA): significant suppression
- TGF-β mRNA level in wound tissue (TGF-β mRNA): weak effect
- Cytotoxicity (in words) (3T3 mouse fibroblasts [2]; at or up to 30 μM, the highest concentration tested): no cytotoxicity
- pIC50 (3T3 mouse fibroblasts [2]): < 4.52
- Body weight loss associated with injury [3]: tendency for HB to reduce weight loss
- Anabolic response (healthy rats): selective anabolic response
- Akt-1 phosphorylation in edge-of-the-wound tissue (phospho-Akt1(Ser473)): upregulation
- Effect on LPS-stimulated inflammation (macrophage cell culture): no pro- or anti-inflammatory effect
- TNF-α mRNA level in wound tissue (TNF-α mRNA): nearly complete downregulation
- Cytotoxicity (in words) (K562 cancer cell line): no cytotoxicity
- Cell proliferation at 5 μM, % of control (3T3 mouse fibroblasts [4]): 37.7 ± 3.4 % of control
- Proliferation of primary keratinocytes ([5]; 3 μM): did not reach significance
- Proliferation of primary keratinocytes ([5]; doses of 0.3 and 10 μM): significant increase
- pIC50 [1]: ~4.52
- Cutaneous wound healing ([6]; 10 μg topical per mouse per day for 10 d, versus vehicle): significantly improved
- Increase in speed of wound closure relative to control mice ([6]; d 4, percent of original wound size, 10 μg/mouse topical): 2 fold
- Cytotoxicity (in words) (HeLa cancer cell line): no cytotoxicity
- Scratch wound closure at 5 μM, % (3T3 mouse fibroblasts [7]): 30 ± 4.2 %
- Scratch wound closure at 5 μM, % (3T3 mouse fibroblasts [7]; listed as HB): 30 ± 4.2%
- Cytotoxicity (in words) (HOS cancer cell line): no cytotoxicity
- pIC50 (RPMI 8226 cancer cells): ~4.52

Molecule: CC[C@@H](C(C)C)[C@H](O)[C@@H](O)[C@@H](C)[C@H]1CC[C@H]2[C@@H]3CC(=O)[C@H]4C[C@H](O)[C@H](O)C[C@]4(C)[C@H]3CC[C@]12C [Compound 2, (22S, 23S, 24S)-2α, 3α, 22, 23-tetrahydroxy-24-ethyl-5α-cholestan-6-one]
- IC50 at 4 h [8]: > 30 µM
- Cytotoxicity (in words) (human cancer cell lines): weak to no cytotoxicity
- Scratch wound closure at 5 μM, % (3T3 mouse fibroblasts [7]): 32.9 ± 4.1 %

Molecule: CC[C@H](C(C)C)[C@H](O)[C@@H](O)[C@@H](C)[C@H]1CC[C@H]2[C@@H]3COC(=O)[C@H]4C[C@H](F)CC[C@]4(C)[C@H]3CC[C@]12C [Compound 3, (22S,23S,24R)-3α-fluoro-22,23-dihydroxy-24-ethyl-^2-homo-7-oxa-5 α-cholestan-6-one]
- pIC50 (3T3 mouse fibroblasts [2]): ~4.52
- Scratch wound closure at 5 μM, % (3T3 mouse fibroblasts [7]): 15.3 ± 2.6%

Molecule: CC[C@@H](C(C)C)[C@H](O)[C@@H](O)[C@@H](C)[C@H]1CC[C@H]2[C@@H]3CC(=O)[C@H]4C[C@H](F)CC[C@]4(C)[C@H]3CC[C@]12C [Compound 4, (22S,23S,24S)-3α-fluoro-22,23-dihydroxy-24-ethyl-5 α-cholestan-6-one]
- IC50 at 4 h [8]: ~30 µM
- Proliferation of primary keratinocytes, dose dependence [5]: dose-dependently decreased
- Scratch wound closure at 5 μM, % (3T3 mouse fibroblasts [7]): 27.7 ± 4.0 %
- Fibroblast migration / scratch wound closure activity (in words) (3T3 mouse fibroblasts [7]): high activity similar to HB

Molecule: CC[C@@H](C(C)C)[C@H](O)[C@@H](O)[C@@H](C)[C@H]1CC[C@H]2[C@@H]3CNC(=O)[C@H]4C[C@H](O)[C@H](O)C[C@]4(C)[C@H]3CC[C@]12C [Compound 5, (22S,23S,24S)-2α,3α,22,23-tetrahydroxy-24-ethyl-^2-homo-7-aza-5α-cholestan-6-one]
- pIC50 (3T3 mouse fibroblasts [2]): 4.90
- Scratch wound closure at 5 μM, % (3T3 mouse fibroblasts [7]): 13.0 ± 0.7%
- Fibroblast migration / scratch wound closure activity (in words) (3T3 mouse fibroblasts [7]): no effect

Molecule: CC[C@@H](C(C)C)[C@H](O)[C@@H](O)[C@@H](C)[C@H]1CC[C@H]2[C@@H]3CC(=O)N[C@H]4C[C@H](O)[C@H](O)C[C@]4(C)[C@H]3CC[C@]12C [Compound 6, (22S,23S,24S)-2α,3α,22,23-tetrahydroxy-24-ethyl-^2-homo-6-aza-5α-cholestan-7-one]
- pIC50 (3T3 mouse fibroblasts [2]): < 4.52
- Proliferation of primary keratinocytes, dose dependence [5]: dose-dependently decreased
- Scratch wound closure at 5 μM, % (3T3 mouse fibroblasts [7]): 30.5 ± 4.2 %
- Fibroblast migration / scratch wound closure activity (in words) (3T3 mouse fibroblasts [7]): highest activity at 3 μM

Molecule: CC(C)[C@H](C)[C@H](O)[C@@H](O)[C@@H](C)[C@H]1CC[C@H]2[C@@H]3COC(=O)[C@H]4C[C@@H](O)[C@H](O)C[C@]4(C)[C@H]3CC[C@]12C [Compound 8, (22S,23S,24R)-2α,3α,22,23-tetrahydroxy-24-methyl-^2-homo-7-oxa-5α-cholestan-6-one]
- pIC50 (3T3 mouse fibroblasts [2]): < 4.52
- Cell proliferation at 5 μM, % of control (3T3 mouse fibroblasts [4]): 31.9 ± 5.3 % of control
- Scratch wound closure at 5 μM, % (3T3 mouse fibroblasts [7]): 13.2 ± 1.5%

Molecule: CC(C)[C@@H](C)[C@@H](O)[C@H](O)[C@@H](C)[C@H]1CC[C@H]2[C@@H]3COC(=O)[C@H]4C[C@H](O)[C@H](O)C[C@]4(C)[C@H]3CC[C@]12C [Compound 9, (22R,23R,24R)-2α,3α,22,23-tetrahydroxy-24-methyl-^2-homo-7-oxa-5α-cholestan-6-one]
- pIC50 (3T3 mouse fibroblasts [2]): < 4.52
- Cell proliferation at 5 μM, % of control (3T3 mouse fibroblasts [4]): 31.0 ± 2.6 % of control
- Scratch wound closure at 5 μM, % (3T3 mouse fibroblasts [7]): 8.1 ± 1.6%

Molecule: PDGF
- Scratch wound closure, % (3T3 mouse fibroblasts [9]): 64.8 ± 1.7 %
